Experimental data taken from patent publication US8785463B2, “GPR 119 agonists” (Cadila Healthcare Limited, priority 2010, dated 2014).

Key:
C57/BL6 mice = assay: Oral Glucose Tolerance Tests (OGTT) in C57/BL6 mice; assay type: in vivo; conditions: single oral dose, glucose load 3 gm/kg, serum glucose AUC, head 50 mg/kg
Procedure: In Vivo Efficacy Studies: Oral Glucose Tolerance Tests (OGTT) in C57/13L6 mice:
C57/BL6 mice of 6-8 week age are used for this experiment. Animals are grouped based on non-fasting serum glucose levels and kept on fasting for overnight (day before OGTT). On the experiment day, […], 30 min post dosing animals are bled for basal glucose level estimation and at the same time glucose load (3 gm/kg) will be administered per orally. Blood is collected at time points corresponding to 20, 40, 60 and 120 min after glucose load administration. Serum is separated for determination of glucose levels and change in area under curve for glucose is calculated and provided in Table 3 as % to reduction in AUC.

human GPR 119 receptor = target: T1, human GPR 119 receptor (Homo sapiens, UniProt Q8TDV5); assay: cAMP assay in stable cell line expressing recombinant human GPR 119 receptor; assay type: cell-based; conditions: for Fold increase in cyclic AMP with respective to DMSO: DMSO = 1
T1 construct: expressed in transfected cells
T1 sequence (Q8TDV5 1-335): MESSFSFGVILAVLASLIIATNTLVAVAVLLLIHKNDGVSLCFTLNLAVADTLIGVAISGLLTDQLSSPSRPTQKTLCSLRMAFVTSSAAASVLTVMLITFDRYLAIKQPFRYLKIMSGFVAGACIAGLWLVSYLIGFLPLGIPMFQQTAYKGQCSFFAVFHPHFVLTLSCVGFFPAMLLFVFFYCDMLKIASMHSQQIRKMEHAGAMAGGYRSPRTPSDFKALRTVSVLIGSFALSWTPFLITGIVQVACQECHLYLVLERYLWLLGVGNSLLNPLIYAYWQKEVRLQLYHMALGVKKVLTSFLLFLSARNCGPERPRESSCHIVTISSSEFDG
From the text: A stable cell line expressing recombinant human GPR 119 receptor was established and used to investigate the efficacy of the compounds of the invention based on the intracellular levels of cyclic AMP (cAMP) using commercially available cAMP kits.

Compound | % reduction in AUC at 50 mg/kg (C57/BL6 mice) [%] | EC50 (human GPR 119 receptor) [nM] | Fold increase in cyclic AMP with respective to DMSO (human GPR 119 receptor; 10 nM compound) [fold] | Fold increase in cyclic AMP with respective to DMSO (human GPR 119 receptor; 100 nM compound) [fold] | Fold increase in cyclic AMP with respective to DMSO (human GPR 119 receptor; 1 uM compound) [fold]
CC(C)c1noc(N2CCC(Oc3cc(Oc4cccc(/C=C5\SC(=O)NC5=O)c4)ncn3)CC2)n1 [Example 66, (Z)-5-(3-((6-((1-(3-isopropyl-1,2,4-oxadiazol-5-yl)piperidin-4-yl)oxy)pyrimidin-4-yl)oxy)benzylidene)thiazolidine-2,4-dione] | 41.1 | 71 | – | – | –
Cc1c(Oc2ccc(/C=C3\SC(=O)NC3=O)cc2)ncnc1OC1CCN(C(=O)OCC(C)C)CC1 [Example 15, (Z)-iso-Butyl 4-((6-(4-((2,4-dioxothiazolidin-5-ylidene)methyl)phenoxy)-5-methylpyrimidin-4-yl)oxy)piperidine-1-carboxylate] | – | – | 1.72 | 2.19 | 3.28
CC(C)(C)OC(=O)N1CCC(Oc2cc(Oc3ccc(/C=C4\SC(=O)N(S(C)(=O)=O)C4=O)cc3)ncn2)CC1 [Example 24, (Z)-tert-Butyl 4-((6-(4-((3-(methylsulfonyl)-2,4-dioxothiazolidin-5-ylidene)methyl)phenoxy)pyrimidin-4-yl)oxy)piperidine-1-carboxylate] | – | – | 1.07 | 1.11 | 2.27
CC(C)c1noc(N2CCC(Oc3cc(Oc4ccc(/C=C5\SC(=O)NC5=O)cc4)ncn3)CC2)n1 [Example 10, (Z)-5-(4-((6-((1-(3-iso-Propyl-1,2,4-oxadiazol-5-yl)piperidin-4-yl)oxy)pyrimidin-4-yl)oxy)benzylidene)thiazolidine-2,4-dione] | – | – | 1.14 | 2.30 | 5.06
CC(C)COC(=O)N1CCC(Oc2cc(Oc3ccc(/C=C4\SC(=O)NC4=O)cc3)ncn2)CC1 [Example 34, (Z)-Isobutyl 4-((6-(4-((2,4-dioxothiazolidin-5-ylidene)methyl)phenoxy)pyrimidin-4-yl)oxy)piperidine-1-carboxylate] | – | – | 0.73 | 1.09 | 2.22
CCOC(=O)N1CCC(Oc2cc(Oc3ccc(/C=C4\SC(=O)NC4=O)cc3)ncn2)CC1 [Example 52, (Z)-Ethyl 4-((6-(4-((2,4-dioxothiazolidin-5-ylidene)methyl)phenoxy)pyrimidin-4-yl)oxy)piperidine-1-carboxylate] | – | – | 1.15 | 1.94 | 3.36
CCOC(=O)N1CCC(Oc2ncnc(Oc3cccc(/C=C4\SC(=O)N(C)C4=O)c3)c2C)CC1 [Example 4, (Z)-Ethyl-4-((5-methyl-6-(3-((3-methyl-2,4-dioxothiazoldin-5-ylidene)methy 1)phenoxy)pyrimidin-4-yl)oxy)piperidine-1-carboxylate] | – | – | 4.52 | 4.95 | 7.17
Cc1c(Oc2cccc(/C=C3\SC(=O)NC3=O)c2)ncnc1OC1CCN(Cc2ccccc2)CC1 [Example 27, (Z)-5-(3-((6-((1-Benzylpiperidin-4-yl)oxy)-5-methylpyrimidin-4-yl)oxy)benzylidene)thiazolidine-2,4-dione] | – | – | 1.38 | 2.89 | 4.79
COc1cc(/C=C2\SC(=O)NC2=O)ccc1Oc1cc(OC2CCN(C(=O)OC(C)(C)C)CC2)ncn1 [Example 40, (Z)-tert-Butyl 4-((6-(4-((2,4-dioxothiazolidin-5-ylidene)methyl)-2-methoxyphenoxy)pyrimidin-4-yl)oxy)piperidine-1-carboxylate] | – | – | 0.87 | 1.21 | 1.66
CCOC(=O)N1CCC(Oc2ncnc(Oc3ccc(/C=C4\SC(=O)NC4=O)cc3)c2C)CC1 [Example 14, (Z)-Ethyl 4-((6-(4-((2,4-dioxothiazolidin-5-ylidene)methyl)phenoxy)-5-methylpyrimidin-4-yl)oxy)piperidine-1-carboxylate] | – | – | 1.40 | 2.40 | 6.61
COc1cc(/C=C2\SC(=O)NC2=O)ccc1Oc1ncnc(OC2CCN(C(=O)OC(C)(C)C)CC2)c1C [Example 8, (Z)-tert-Butyl 4-((6-(4-((2,4-dioxothiazolidin-5-ylidene)methyl)-2-methoxyphenoxy)-5-methylpyrimidin-4-yl)oxy)piperidine-1-carboxylate] | – | – | 0.52 | 0.85 | 1.67
Cc1c(Oc2cccc(/C=C3\SC(=O)NC3=O)c2)ncnc1OC1CCN(C(=O)OCc2ccccc2)CC1 [Example 50, (Z)-Benzyl 4-((6-(3-((2,4-dioxothiazolidin-5-ylidene)methyl)phenoxy)-5-methylpyrimidin-4-yl)oxy)piperidine-1-carboxylate] | – | – | 1.73 | 4.66 | 5.74
Cc1c(Oc2cccc(/C=C3\SC(=O)NC3=O)c2)ncnc1OC1CCN(c2ncccn2)CC1 [Example 28, (Z)-5-(3-((5-Methyl-6-((1-(pyrimidin-2-yl)piperidin-4-yl)oxy)pyrimidin-4-yl)oxy)benzylidene)thiazolidine-2,4-dione] | – | – | 1.32 | 2.86 | 4.56
CCc1cnc(N2CCC(Oc3cc(Oc4ccc(/C=C5\SC(=O)NC5=O)cc4)ncn3)CC2)nc1 [Example 41, (Z)-5-(4-((6-((1-(5-Ethylpyrimidin-2-yl)piperidin-4-yl)oxy)pyrimidin-4-yl)oxy)benzylidene)thiazolidine-2,4-dione] | – | – | 1.00 | 1.58 | 3.53
Cc1c(Oc2ccc(/C=C3\SC(=O)NC3=O)cc2)ncnc1OC1CCN(c2ncccn2)CC1 [Example 17, (Z)-5-(4-((5-Methyl-6-((1-(pyrimidin-2-yl)piperidin-4-yl)oxy)pyrimidin-4-yl)oxy)benzylidene)thiazolidine-2,4-dione] | – | – | 0.84 | 1.06 | 2.57
